Data taken from PubChem BioAssay AID743404 (Broad Institute, 2014).
The source made the active and inactive calls. No rule for the calls is given here.

Tested on: not listed separately
Assay: replicating M. tuberculosis growth inhibition, dose response, imaging, dry powder (AID 743404)
Conditions: Mycobacterium tuberculosis replicating growth, CFU imaging; at 50 µM (top of the series)

Structure (SMILES)	activity change, negative = inhibition
O=C(Nc1nc2ccccc2n1-c1ccccc1)c1ccccc1	-7.02% (inactive)

Same assay, conditions: Mycobacterium tuberculosis replicating growth, CFU imaging; at 100 µM (top of the series)

Structure (SMILES)	activity change, negative = inhibition
O=C(Nc1nc2ccccc2n1CCN1CCOCC1)c1ccccc1	-5.41% (inactive)
COc1cccc(C(=O)Nc2nc3ccccc3n2C)c1	-11.3% (inactive)
Cn1c(NC(=O)c2ccc(Oc3ccccc3)cc2)nc2ccccc21	-18.8% (inactive)
Cn1c(NC(=O)c2ccc(N3CCOCC3)cc2)nc2ccccc21	-9.12% (inactive)
Cn1c(NC(=O)c2ccccc2C(F)(F)F)nc2ccccc21	-8.14% (inactive)
Cn1c(NC(=O)c2nc3ccccc3s2)nc2ccccc21	3.65% (inactive)
Cn1c(C(=O)Nc2ccccc2)nc2ccccc21	-11.4% (inactive)
Cn1c(NC(=O)c2ccc(N3CCOC3=O)cc2)nc2ccccc21	3.62% (inactive)
Cn1c(NC(=O)c2ccccc2)nc2cc(F)ccc21	-9.27% (inactive)
Cn1c(NC(=O)c2ccc(-n3ccnn3)cc2)nc2ccccc21	0.752% (inactive)
Cn1c(NC(=O)c2ccccc2)nc2ccc3ncccc3c21	-10.6% (inactive)
Cn1c(NC(=O)c2ccc(C#N)cc2)nc2ccccc21	-1.94% (inactive)
Cn1c(NC(=O)c2ccc(-c3ncco3)cc2)nc2ccccc21	-1.55% (inactive)
Cn1c(NC(=O)c2ccccc2Cl)nc2ccccc21	-2.89% (inactive)
Cn1c(NC(=O)c2ccccc2)nc2cc(Cl)ccc21	-6.62% (inactive)
Cn1c(NC(=O)c2ccccc2)nc2ccc(C#N)cc21	4.9% (inactive)
Cc1cc(C(=O)Nc2nc3ccccc3n2C)on1	-7.86% (inactive)
COc1ccc2c(c1)nc(NC(=O)c1ccccc1)n2C	-10.1% (inactive)
CC(C)n1c(NC(=O)c2ccccc2)nc2ccccc21	-7.84% (inactive)
Cn1c(NC(=O)c2ccc(F)c(F)c2)nc2ccccc21	1.94% (inactive)
Cn1c(NC(=O)c2ccno2)nc2ccccc21	-5.54% (inactive)
O=C(Nc1nc2ccccc2s1)c1ccccc1	-9.11% (inactive)
Cc1ccc2c(c1)nc(NC(=O)c1ccccc1)n2C	-14.6% (inactive)
COCCn1c(NC(=O)c2ccccc2)nc2ccccc21	-13.8% (inactive)

Structure (SMILES)	activity change, negative = inhibition
Cn1c(NC(=O)c2cccc(C(F)(F)F)c2)nc2ccccc21	-12.4% (inactive)
Cn1c(NC(=O)c2cccs2)nc2ccccc21	-15.5% (inactive)
COc1ccc(C(=O)Nc2nc3ccccc3n2C)cc1OC	-3.35% (inactive)
Cn1c(NC(=O)c2ccc(Cl)c(Cl)c2)nc2ccccc21	0.098% (inactive)
COc1cccc2c1nc(NC(=O)c1ccccc1)n2C	-17.3% (inactive)
Cn1c(NC(=O)c2ccc3ncoc3c2)nc2ccccc21	1.4% (inactive)
Cn1c(NC(=O)c2ccccc2)nc2cccc(Cl)c21	-2% (inactive)
O=C(Nc1nc2ccccc2[nH]1)c1ccccc1	1.93% (inactive)
O=C(Nc1nc2ccccc2n1Cc1ccccc1)c1ccccc1	3.29% (inactive)
Cn1c(NC(=O)c2ccc(-c3nccs3)cc2)nc2ccccc21	1.95% (inactive)
Cn1c(NC(=O)Nc2ccccc2)nc2ccccc21	-16.1% (inactive)
Cn1c(NS(=O)(=O)c2ccccc2)nc2ccccc21	-4.4% (inactive)
Cn1c(NC(=O)c2ccccc2)nc2ccc(F)cc21	-13% (inactive)
O=C(Nc1nc2ccccc2n1C1CC1)c1ccccc1	-6.92% (inactive)
Cn1c(NC(=O)Cc2ccccc2)nc2ccccc21	-15.4% (inactive)
Cn1c(NC(=O)c2ccc(OC(F)(F)F)cc2)nc2ccccc21	1.97% (inactive)
Cn1c(NC(=O)c2ccccc2)nc2cccnc21	-6.96% (inactive)
COc1ccc(C(=O)Nc2nc3ccccc3n2C)cc1	-7.64% (inactive)
CN(C(=O)c1ccccc1)c1nc2ccccc2n1C	-7.26% (inactive)
Cn1c(NC(=O)c2ccncc2)nc2ccccc21	-9.25% (inactive)
CC(=O)Nc1nc2ccccc2n1C	-2.24% (inactive)
COc1ccccc1C(=O)Nc1nc2ccccc2n1C	-18% (inactive)
CC(C)Oc1ccc(C(=O)Nc2nc3ccccc3n2C)cc1	-8.59% (inactive)
Cn1c(NC(=O)c2ccccc2)nc2cc(C(F)(F)F)ccc21	-1.86% (inactive)

Tested on: Mycobacterium tuberculosis replicating growth, CFU imaging
Assay: as above
Conditions: not given

Structure (SMILES)	AC90
Cn1c(NC(=O)c2ccccc2)nc2c3nccnc3ccc21	63.9 µM
CN1CCN(c2ccc(C(=O)Nc3nc4ccccc4n3C)cc2)CC1	> 100 µM (inactive)
Cn1c(NC(=O)c2ccccc2)nc2c3ccncc3ccc21	18.4 µM
Cn1c(NC(=O)c2cccnc2)nc2ccccc21	99.8 µM
Cn1c(NC(=O)c2ccccc2)nc2c(C#N)cccc21	> 100 µM (inactive)
O=C(Nc1nc2ccccc2n1C1CCCCC1)c1ccccc1	> 100 µM (inactive)
Cn1c(N2CCN(C(=O)c3ccccc3)CC2)nc2ccccc21	> 100 µM (inactive)
Cn1c(NC(=O)c2ccc(N3CCCCC3)cc2)nc2ccccc21	> 100 µM (inactive)
Cn1c(N)nc2ccccc21	> 50 µM (inactive)
Cc1ccccc1C(=O)Nc1nc2ccccc2n1C	> 100 µM (inactive)
CCN(CC)CCn1c(NC(=O)c2ccccc2)nc2ccccc21	102 µM
Cn1c(NC(=O)c2ccccc2)nc2c3ncccc3ccc21	10.6 µM
Cn1c(NC(=O)c2ccccc2)nc2cc(C#N)ccc21	> 100 µM (inactive)
Cn1c(NC(=O)c2ccccc2)nc2c3cnccc3ccc21	14.4 µM
CO[C@H]1/C=C/O[C@@]2(C)Oc3c(C)c(O)c4c(O)c(c(C=NN5CCN(C)CC5)c(O)c4c3C2=O)NC(=O)/C(C)=C\C=C\[C@H](C)[C@H](O)[C@@H](C)[C@@H](O)[C@@H](C)[C@H](OC(C)=O)[C@@H]1C	6.43 µM
Cn1c(NC(=O)c2ccccc2)nc2c(Cl)cccc21	> 100 µM (inactive)
